The values that follow come from patent US20260232658A1, “AZETIDINYL BENZOXAZOLE COMPOUNDS AND THEIR USE AS MER AND AXL INHIBITORS” (DONG-A ST CO., LTD., priority 2022, published 2026).

Assay [1] deals with T1, human AXL (473-end) (Homo sapiens, UniProt P30530).
T1 construct: human AXL (473-end); purchased SignalChem, Canada
T1 sequence (P30530 473-894 limits assumed): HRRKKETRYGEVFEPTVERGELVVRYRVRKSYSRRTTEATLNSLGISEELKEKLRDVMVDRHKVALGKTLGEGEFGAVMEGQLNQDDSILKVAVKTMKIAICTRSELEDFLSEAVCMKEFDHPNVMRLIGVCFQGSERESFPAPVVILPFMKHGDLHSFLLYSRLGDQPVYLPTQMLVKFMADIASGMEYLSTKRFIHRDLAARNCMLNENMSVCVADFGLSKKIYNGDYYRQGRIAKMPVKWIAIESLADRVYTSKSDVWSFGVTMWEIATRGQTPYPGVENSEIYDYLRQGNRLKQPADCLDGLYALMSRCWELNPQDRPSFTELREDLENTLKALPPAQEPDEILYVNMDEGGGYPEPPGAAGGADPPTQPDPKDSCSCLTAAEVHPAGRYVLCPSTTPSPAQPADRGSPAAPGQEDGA
Kind of assay: HTRF kinase activity biochemical assay, AXL.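 Also: phosphorylation of a biotinylated tyrosine kinase substrate detected via Eu3+-cryptate anti-TK antibody and streptavidin-XL665, fluorescence read after a 1 h incubation at room temperature.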 To be noted: recombinant kinase, 10 uM ATP, 30 minutes pre-incubation; read-out: HTRF AXL IC50.

For assay [2], the target named is T2, human MER (528-end) (Homo sapiens, UniProt Q12866).
T2 construct: human MER (528-end); purchased Carnabio, Japan
T2 sequence (Q12866 528-999 limits assumed): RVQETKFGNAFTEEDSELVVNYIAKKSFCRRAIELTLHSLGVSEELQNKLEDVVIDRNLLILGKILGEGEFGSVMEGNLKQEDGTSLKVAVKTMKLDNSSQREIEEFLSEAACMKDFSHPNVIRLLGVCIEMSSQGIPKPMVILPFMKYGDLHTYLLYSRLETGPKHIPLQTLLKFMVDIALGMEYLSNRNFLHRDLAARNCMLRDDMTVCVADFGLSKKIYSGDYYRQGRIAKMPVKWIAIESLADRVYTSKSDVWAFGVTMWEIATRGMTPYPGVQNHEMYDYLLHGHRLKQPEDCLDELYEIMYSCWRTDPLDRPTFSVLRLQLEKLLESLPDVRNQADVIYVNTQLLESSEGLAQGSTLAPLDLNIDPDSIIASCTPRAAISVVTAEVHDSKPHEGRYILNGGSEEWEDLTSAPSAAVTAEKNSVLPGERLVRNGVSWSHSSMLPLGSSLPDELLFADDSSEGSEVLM
As to the kind of experiment: HTRF kinase activity biochemical assay, MER.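 Also: phosphorylation of a biotin-tagged tyrosine kinase substrate detected by Eu3+-cryptate antibody and streptavidin-XL665 time-resolved fluorescence, read after 1 h at room temperature.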 To be noted: recombinant kinase, 10 uM ATP, 30 minutes pre-incubation; read-out: HTRF MERTK IC50.

For assay [3], the target named is T3, TYRO3 (455-end) (Homo sapiens, UniProt Q06418).
T3 construct: TYRO3 (455-end); purchased SignalChem, Canada
T3 sequence (Q06418 455-890 limits assumed): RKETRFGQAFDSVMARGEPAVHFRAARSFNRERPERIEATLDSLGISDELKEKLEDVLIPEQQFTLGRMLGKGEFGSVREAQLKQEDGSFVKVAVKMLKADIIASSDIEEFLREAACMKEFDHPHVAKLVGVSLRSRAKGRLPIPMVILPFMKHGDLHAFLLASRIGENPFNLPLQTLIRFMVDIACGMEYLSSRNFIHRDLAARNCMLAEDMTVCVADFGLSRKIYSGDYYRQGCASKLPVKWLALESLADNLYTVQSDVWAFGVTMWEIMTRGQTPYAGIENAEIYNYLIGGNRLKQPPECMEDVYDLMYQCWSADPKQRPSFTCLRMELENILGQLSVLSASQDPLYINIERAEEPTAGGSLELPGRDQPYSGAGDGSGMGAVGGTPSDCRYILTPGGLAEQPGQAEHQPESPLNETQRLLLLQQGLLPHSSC
As to the kind of experiment: HTRF kinase activity biochemical assay, TYRO3.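 Also: biotinylated tyrosine kinase substrate phosphorylation detected via streptavidin-XL665 and Eu3+-cryptate anti-phospho antibody time-resolved fluorescence, read after 1 h detection at room temperature, 384-well format.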 To be noted: recombinant kinase, 10 uM ATP, 30 minutes pre-incubation; read-out: HTRF TYRO IC50.

Structures are written as SMILES.

On to `Cn1cc(Nc2ncc(C3CN(c4nc5ccc(OCC6CC6)cc5o4)C3)nc2C(N)=O)cn1` [Example 23, 6-{1-[6-(cyclopropylmethoxy)-1,3-benzoxazol-2-yl]azetidin-3-yl}-3-[(1-methyl-1H-pyrazol-4-yl)amino]pyrazine-2-carboxamide], for which the IC50 in assay [1] was below 1 nM; in assay [2] it was below 1 nM; in assay [3], 8 nM.

With `Cn1cc(Nc2ncc(C3CN(c4nc5ccc(C6=CCOC6)cc5o4)C3)nc2C(N)=O)cn1` [Example 15A, 6-{1-[6-(2,5-dihydrofuran-3-yl)-1,3-benzoxazol-2-yl]azetidin-3-yl}-3-[(1-methyl-1H-pyrazol-4-yl)amino]pyrazine-2-carboxamide], the IC50 in assay [1] was 5 nM; in assay [2], 2 nM; in assay [3] it was 74 nM.

For `Cn1cc(Nc2ncc(C3CN(c4nc5ccc(C6CCCCC6)cc5o4)C3)nc2C(N)=O)cn1` [Example 7, 6-[1-(6-cyclohexyl-1,3-benzoxazol-2-yl)azetidin-3-yl]-3-[(1-methyl-1H-pyrazol-4-yl)amino]pyrazine-2-carboxamide], the half-inhibitory concentration (IC50) was found to be 6 nM in assay [1], 3 nM in assay [2] and 680 nM in assay [3].

Regarding `Cn1cc(Nc2ncc(C3CN(c4nc5ccc(CCC(=O)N6CCCC6)cc5o4)C3)nc2C(N)=O)cn1` [Example 63, 3-[(1-methyl-1H-pyrazol-4-yl)amino]-6-(1-{6-[3-oxo-3-(pyrrolidin-1-yl)propyl]-1,3-benzoxazol-2-yl}azetidin-3-yl)pyrazine-2-carboxamide], the IC50 is 16 nM in assay [1], 11 nM in assay [2] and 4300 nM in assay [3].

As to `CCOC(C)(C)c1ccc2nc(N3CC(c4cnc(Nc5cnn(C)c5)c(C(N)=O)n4)C3)oc2c1` [Example 101, 6-{1-[6-(2-ethoxypropan-2-yl)-1,3-benzoxazol-2-yl]azetidin-3-yl}-3-[(1-methyl-1H-pyrazol-4-yl)amino]pyrazine-2-carboxamide], the 50% inhibitory concentration (IC50) in assay [1] is 12 nM; in assay [2], 8 nM; in assay [3], 1490 nM.

With `COc1cnc(Oc2ccc3nc(N4CC(c5cnc(Nc6cnn(C)c6)c(C(N)=O)n5)C4)oc3c2)nc1` [Example 102, 6-(1-{6-[(5-methoxypyrimidin-2-yl)oxy]-1,3-benzoxazol-2-yl}azetidin-3-yl)-3-[(1-methyl-1H-pyrazol-4-yl)amino]pyrazine-2-carboxamide], the half-maximal inhibitory concentration (IC50) is 2 nM in assay [1], below 1 nM in assay [2] and 100 nM in assay [3].

In the case of `Cn1cc(Nc2ncc(C3CN(c4nc5ccc(OCC(C)(C)OC(=O)CN)cc5o4)C3)nc2C(N)=O)cn1` [Example 113, 1-{[2-(3-{6-carbamoyl-5-[(1-methyl-1H-pyrazol-4-yl)amino]pyrazin-2-yl}azetidin-1-yl)-1,3-benzoxazol-6-yl]oxy}-2-methylpropan-2-yl glycinate], the concentration for half-maximal inhibition (IC50) in assay [1] was 1 nM; in assay [2], below 1 nM; in assay [3] it was 160 nM.

Take `CCOC(=O)COc1ccc2nc(N3CC(c4cnc(Nc5cnn(C)c5)c(C(N)=O)n4)C3)oc2c1` [Example 26, ethyl {[2-(3-{6-carbamoyl-5-[(1-methyl-1H-pyrazol-4-yl)amino]pyrazin-2-yl}azetidin-1-yl)-1,3-benzoxazol-6-yl]oxy}acetate]: the half-maximal inhibitory concentration (IC50) in assay [1] was 3 nM; in assay [2], below 1 nM; in assay [3], 94 nM.

As to `Cn1cc(Nc2ccc(C3CN(c4nc5ccc(OCC(C)(C)OP(=O)(O)O)cc5o4)C3)nc2C(N)=O)cn1` [Example 106, 1-{[2-(3-{6-carbamoyl-5-[(1-methyl-1H-pyrazol-4-yl)amino]pyridin-2-yl}azetidin-1-yl)-1,3-benzoxazol-6-yl]oxy}-2-methylpropan-2-yl dihydrogen phosphate], the results for the half-inhibitory concentration (IC50) in assay [1], in assay [2] and in assay [3] were 6 nM, 1.8 nM and 1070 nM, respectively.

Regarding `Cn1cc(Nc2ccc(C3CN(c4nc5ccc(OCCC(C)(C)OP(=O)(O)O)cc5o4)C3)nc2C(N)=O)cn1` [Example 109, 4-{[2-(3-{6-carbamoyl-5-[(1-methyl-1H-pyrazol-4-yl)amino]pyridin-2-yl}azetidin-1-yl)-1,3-benzoxazol-6-yl]oxy}-2-methylbutan-2-yl dihydrogen phosphate], the results for the concentration for half-maximal inhibition (IC50) in assay [1], in assay [2] and in assay [3] were 78 nM, 27 nM and 2200 nM, respectively.

Turning to `Cn1cc(Nc2ncc(C3CN(c4nc5ccc(OC6CCCC6O)cc5o4)C3)nc2C(N)=O)cn1` (stereo not drawn) [Example 79, 6-(1-{6-[(2-hydroxycyclopentyl)oxy]-1,3-benzoxazol-2-yl}azetidin-3-yl)-3-[(1-methyl-1H-pyrazol-4-yl)amino]pyrazine-2-carboxamide], the concentration for half-maximal inhibition (IC50) in assay [1] is 2 nM; in assay [2], below 1 nM; in assay [3], 66 nM.

As for `Cn1cc(Nc2ncc(C3CN(c4nc5ccc(OCC6(O)CCC6)cc5o4)C3)nc2C(N)=O)cn1` [Example 44, 6-(1-{6-[(1-hydroxycyclobutyl)methoxy]-1,3-benzoxazol-2-yl}azetidin-3-yl)-3-[(1-methyl-1H-pyrazol-4-yl)amino]pyrazine-2-carboxamide], the 50% inhibitory concentration (IC50) in assay [1] is 2 nM; in assay [2] it was below 1 nM; in assay [3] it was 110 nM.

With `Cn1cc(Nc2ncc(C3CN(c4nc5ccc(C(=O)N6CCOCC6)cc5o4)C3)nc2C(N)=O)cn1` [Example 46, 3-[(1-methyl-1H-pyrazol-4-yl)amino]-6-{1-[6-(morpholine-4-carbonyl)-1,3-benzoxazol-2-yl]azetidin-3-yl}pyrazine-2-carboxamide], the IC50 in assay [1] was determined as 9 nM; in assay [2] it was 3 nM; in assay [3], 9 nM.

Consider `CCc1ccc2nc(N3CC(c4cnc(Nc5cnn(C)c5)c(C(N)=O)n4)C3)oc2c1` [Example 5, 6-[1-(6-ethyl-1,3-benzoxazol-2-yl)azetidin-3-yl]-3-[(1-methyl-1H-pyrazol-4-yl)amino]pyrazine-2-carboxamide], for which the concentration for half-maximal inhibition (IC50) in assay [1] was 2 nM; in assay [2], below 1 nM; in assay [3], 83 nM.

In the case of `NC(=O)c1nc(C2CN(c3nc4ccc(F)cc4o3)C2)cnc1Nc1cnn(CC(O)CO)c1` (stereo not drawn) [Example 36, 3-{[1-(2,3-dihydroxypropyl)-1H-pyrazol-4-yl]amino}-6-[1-(6-fluoro-1,3-benzoxazol-2-yl)azetidin-3-yl]pyrazine-2-carboxamide], the values for the IC50 in assay [1], in assay [2] and in assay [3] were 9 nM, 1 nM and 170 nM, respectively.

In the case of `Cn1cc(Nc2ncc(C3CN(c4nc5ccc(CC(CO)CO)cc5o4)C3)nc2C(N)=O)cn1` [Example 25, 6-(1-{6-[3-hydroxy-2-(hydroxymethyl)propyl]-1,3-benzoxazol-2-yl}azetidin-3-yl)-3-[(1-methyl-1H-pyrazol-4-yl)amino]pyrazine-2-carboxamide], the values for the half-inhibitory concentration (IC50) in assay [1], in assay [2] and in assay [3] were 10 nM, 7 nM and 1100 nM, respectively.

Turning to `Cn1cc(Nc2ncc(C3CN(c4nc5ccc(OCC(C)(C)OP(=O)(O)O)cc5o4)C3)nc2C(N)=O)cn1` [Example 112, 1-{[2-(3-{6-carbamoyl-5-[(1-methyl-1H-pyrazol-4-yl)amino]pyrazin-2-yl}azetidin-1-yl)-1,3-benzoxazol-6-yl]oxy}-2-methylpropan-2-yl dihydrogen phosphate], the half-maximal inhibitory concentration (IC50) in assay [1] worked out at 69 nM; in assay [2], 52 nM; in assay [3], 5860 nM.

Consider `Cn1cc(Nc2ncc(C3CN(c4nc5ccc(OC[C@H]6COCCO6)cc5o4)C3)nc2C(N)=O)cn1` [Example 48, 6-[1-(6-{[(2R)-1,4-dioxan-2-yl]methoxy}-1,3-benzoxazol-2-yl)azetidin-3-yl]-3-[(1-methyl-1H-pyrazol-4-yl)amino]pyrazine-2-carboxamide], for which the figures for the IC50 in assay [1], in assay [2] and in assay [3] were 3 nM, 2 nM and 230 nM, respectively.

As a reminder, the IC50 is the concentration needed to halve the response being measured.
